Source: the supplement of paper PMC8024199
± gives the standard deviation of the averaged measurements.

Experiments:
Test in all cases: drug sensitivity score (DSS) (DSS score); higher = more sensitive (stronger growth inhibition); extreme values may be limits of the assay
[1] = test system: Ba/F3 P210-BCR-ABL1 RUNX1-/- (mouse)
Procedure, shortened: (§1)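 A drug sensitivity score summarised each dose-response curve, with luminescence from CellTiter-Glo scaled between vehicle and positive-control wells. Values are the mean of two replicates. The cells were mouse Ba/F3 clones that were CRISPR/Cas9-edited at a target exon or were edited controls, exposed on pre-printed 384-well plates to a 528-compound library at five concentrations spanning a 10,000-fold range. Plates held 10,000 cells per well in RPMI with 10% FBS for 72 h at 37 °C and 5% CO2.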

[2] = test system: Ba/F3 P210-BCR-ABL1 RUNX1-/mut (mouse)
Procedure, shortened: as §1

[3] = test system: Ba/F3 P210-BCR-ABL1 RUNX1wt/wt control (mouse)
Procedure, shortened: as §1

Row | Compound | drug sensitivity score [1] | drug sensitivity score [2] | drug sensitivity score [3]
1 | O=C(Nc1ccc(OC(F)(F)Cl)cc1)c1cnc(N2CC[C@@H](O)C2)c(-c2cc[nH]n2)c1 [Asciminib] | 31.85 ± 0.071 | 10.7 ± 4.5 | 18.8 ± 0.71
2 | CC(C)c1c(C(=O)Nc2ccccc2)c(-c2ccccc2)c(-c2ccc(F)cc2)n1CC[C@@H](O)C[C@@H](O)CC(=O)O [Atorvastatin] | 0.65 ± 0.92 | 0.1 ± 0.14 | 0
3 | CC(=O)OC[C@H]1O[C@@H]([S-])[C@H](OC(C)=O)[C@@H](OC(C)=O)[C@@H]1OC(C)=O.CCP(CC)CC.[Au+] [Auranofin] | 8.5 ± 0.85 | 6.15 ± 4.5 | 2.8 ± 0.71
4 | Cc1cc(-c2nc(-c3ccc(OC(F)(F)F)cc3)no2)nn1Cc1ccnc(N2CCN(C3CC3)CC2)c1 [BAY 87-2243] | 4.6 ± 2.3 | 3.25 ± 1.5 | 4.9 ± 0.57
5 | Nc1nc(Nc2ccc3c(c2)CC[C@@H](N2CCCC2)CC3)nn1-c1cc2c(nn1)-c1ccccc1CCC2 [BGB324] | 7.3 ± 0.57 | 6.35 ± 1.2 | 5.65 ± 0.21
6 | O=C1CCc2c(Oc3ccc4c(c3)[C@@H]3[C@H](O4)[C@H]3c3nc4cc(C(F)(F)F)ccc4[nH]3)ccnc2N1 [BGB-283] | 21.8 ± 0.64 | 16.9 | 16 ± 0.14
7 | CC1(C)C(C(=O)Nc2ccc(S(=O)(=O)c3ccc(NC(=O)C4C(C)(C)C4(C)C)cc3)cc2)C1(C)C [BRD7116] | 3.75 ± 2.6 | 0.05 ± 0.071 | 0
8 | O=C(Nc1cccc(Nc2ncc(Br)c(NCCc3cnc[nH]3)n2)c1)N1CCCC1 [BX-912] | 8.9 ± 0.42 | 7.25 ± 1.1 | 1.85 ± 0.071
9 | Cc1ccc(NC(=O)c2ccc(CN3CC[C@H](N(C)C)C3)c(C(F)(F)F)c2)cc1Nc1nccc(-c2cncnc2)n1 [Bafetinib] | 26.55 ± 0.21 | 19.9 ± 1.5 | 16.3
10 | CCS(=O)(=O)N1CC(CC#N)(n2cc(-c3ncnc4[nH]ccc34)cn2)C1 [Baricitinib] | 0 | 0 | 0
11 | N#CC(c1ccnc(OCc2ccc(CN3CCOCC3)cc2)n1)c1nc2ccccc2s1 (stereo not given) [Bentamapimod] | 2.55 ± 1.6 | 0.75 ± 1.1 | 4.25 ± 0.49
12 | CC(O)(CS(=O)(=O)c1ccc(F)cc1)C(=O)Nc1ccc(C#N)c(C(F)(F)F)c1 (stereo not given) [Bicalutamide] | 0.25 ± 0.35 | 1.15 ± 1.6 | 0
13 | Cn1cnc2c(F)c(Nc3ccc(Br)cc3F)c(C(=O)NOCCO)cc21 [Binimetinib] | 3.3 ± 0.42 | 0.3 ± 0.42 | 0
14 | Cc1sc2c(c1C)C(c1ccc(Cl)cc1)=N[C@@H](CC(=O)Nc1ccc(O)cc1)c1nnc(C)n1-2 [Birabresib] | 24.1 ± 1.3 | 24.6 ± 3 | 15.2 ± 0.49
15 | CC[C@H](NC(=O)[C@H](C)NC)C(=O)N1C[C@@H](O)C[C@H]1Cc1c(-c2[nH]c3cc(F)ccc3c2C[C@@H]2C[C@H](O)CN2C(=O)[C@H](CC)NC(=O)[C@H](C)NC)[nH]c2cc(F)ccc12 [Birinapant] | 14 ± 5.5 | 4.15 ± 5.2 | 6.15 ± 0.071
16 | COc1cc(N2CCC(N3CCN(C)CC3)CC2)ccc1Nc1ncc(Cl)c(Nc2ccccc2P(C)(C)=O)n1 [Brigatinib] | 4.95 ± 0.35 | 2.55 ± 3.6 | 0.1 ± 0.14
17 | Cc1cc2c(F)c(Oc3ncnn4cc(OC[C@@H](C)O)c(C)c34)ccc2[nH]1 [Brivanib] | 0 | 0 | 0
18 | Nc1cc(C(F)(F)F)c(-c2cc(N3CCOCC3)nc(N3CCOCC3)n2)cn1 [Buparlisib] | 8.6 ± 0.42 | 8.7 ± 2.3 | 4.5 ± 0.57

Row | Compound | drug sensitivity score [1] | drug sensitivity score [2] | drug sensitivity score [3]
19 | Cc1nc2cccc(N)c2c(=O)n1C1CCC(=O)NC1=O (stereo not given) [CC122] | 0 | 0 | 0
20 | CCN1C(=O)CNc2ncc(-c3ccc(-c4nc[nH]n4)nc3C)nc21 [CC-115] | 12.6 ± 2.9 | 12.8 ± 1.9 | 7.65 ± 0.21
21 | CO[C@H]1CC[C@H](N2C(=O)CNc3ncc(-c4ccc(C(C)(C)O)nc4)nc32)CC1 [CC-223] | 7.25 ± 0.64 | 6.65 ± 2.2 | 2.45 ± 0.071
22 | COc1cc(C)[nH]c(=O)c1CNC(=O)c1c(C)n([C@H](C)C2CCOCC2)c2ccccc12 [CPI-360] | 0 | 0 | 0
23 | Cc1noc2c1-c1ccccc1C(c1ccc(Cl)cc1)=N[C@H]2CC(N)=O [CPI-0610] | 19.6 ± 1.1 | 19.1 ± 4.6 | 14 ± 0.28
24 | O=C(O)CCCCC(CCSCc1ccccc1)SCc1ccccc1 (stereo not given) [CPI-613] | 0 | 0 | 0
25 | CN(C)c1cc2c(cc1Sc1nc3c(N)nccc3n1CCNCC(C)(C)C)OCO2 [CUDC-305] | 18.3 ± 1.6 | 16.9 ± 0.21 | 17.1 ± 0.21
26 | COc1ccc(-c2nc(N3CCOCC3)c3sc(CN(C)c4ncc(C(=O)NO)cn4)cc3n2)cn1 [CUDC-907] | 40.9 ± 0.85 | 43.65 ± 0.35 | 39 ± 0.57
27 | CO[C@H]1C(=O)[C@]2(C)[C@@H](OC)C[C@H]3OC[C@@]3(OC(C)=O)[C@H]2[C@H](OC(=O)c2ccccc2)[C@]2(O)C[C@H](OC(=O)[C@H](O)[C@@H](NC(=O)OC(C)(C)C)c3ccccc3)C(C)=C1C2(C)C [Cabazitaxel] | 35.9 ± 1.4 | 26.2 ± 3.5 | 13.55 ± 0.071
28 | COc1cc2nccc(Oc3ccc(NC(=O)C4(C(=O)Nc5ccc(F)cc5)CC4)cc3)c2cc1OC [Cabozantinib] | 4.8 ± 0.85 | 1.8 ± 1.6 | 0
29 | CNC(=O)c1ccc(-c2cnc3ncc(Cc4ccc5ncccc5c4)n3n2)cc1F [Capmatinib] | 0.2 ± 0.28 | 0 | 0.25 ± 0.35
30 | O=C(O)C1(C(=O)O)CCC1.[NH2-].[NH2-].[Pt+2] [Carboplatin] | 6.65 ± 1.8 | 6.9 ± 1.8 | 3.45 ± 0.21
31 | COc1cc2c(Oc3ccc4[nH]c(C)cc4c3F)ncnc2cc1OCCCN1CCCC1 [Cediranib] | 0 | 0 | 0
32 | CCS(=O)(=O)N1CCN(c2ccc(Nc3ncc(C(N)=O)c(NC4CC4)n3)cc2)CC1 [Cerdulatinib] | 14.8 ± 0.64 | 13.1 ± 1.6 | 9.5 ± 0.42
33 | Cc1cc(Nc2ncc(Cl)c(Nc3ccccc3S(=O)(=O)C(C)C)n2)c(OC(C)C)cc1C1CCNCC1 [Ceritinib] | 0.8 ± 1.1 | 0.75 ± 1.1 | 1.35 ± 0.78
34 | CCN(CC)CCCC(C)Nc1ccnc2cc(Cl)ccc12 (stereo not given) [Chloroquine] | 13.2 ± 5.2 | 14.9 ± 5.6 | 5.8 ± 0.28
35 | CC(C)[C@H]1C(=O)N[C@@H](CCCNC(=N)N)C(=O)NCC(=O)N[C@@H](CC(=O)O)C(=O)N[C@H](Cc2ccccc2)C(=O)N1C [Cilengitide] | 0 | 0 | 0
